The assay has as its system Yeast Sic1MUS-GFP degradation, Cln2 overexpression, flow cytometry. The assay is described as follows: degradation of ubiquitination-site mutant Sic1-GFP in yeast, confirmation, mechanism study for 26S proteasome disassembly project, flow cytometry, Cln2 overexpression, Sic1MUS mutant (AID 1311). The following applies: stronger effect = higher value. A general note: A flow cytometer gives signals particle by particle.

Experimental findings from PubChem BioAssay AID1311 (NMMLSC, 2008) are described below.

The structures appear in SMILES notation. Where a SMILES comes first, the peptide text is derived from it. The star is where a group is joined. Cbz = O=C(OCc1ccccc1)*

On to `CC(C)C[C@@H](C=O)NC(=O)[C@H](CC(C)C)NC(=O)[C@H](CC(C)C)NC(=O)OCc1ccccc1` (Cbz-Leu-Leu-Leu-aldehyde), for which the percent GFP remaining is 4.05%. The value for `CC(=O)N1C(=O)C(=C2C=C(C)OC(C)=C2)c2ccccc21` was 2.25%.
